# ChEMBL document CHEMBL2440027, “Further SAR studies on bicyclic basic merbarone analogues as potent antiproliferative agents” (Bioorg Med Chem, 2013)
# Key:
# [1] = tested on: KM12; assay: Growth inhibition of human KM12 cells after 48 hrs by sulforhodamine B assay; format: functional; conditions: KM12, 48 h
# [2] = tested on: MDA-MB-468; assay: Growth inhibition of human MDA-MB-468 cells after 48 hrs by sulforhodamine B assay; format: functional; conditions: MDA-MB-468, 48 h
# [3] = tested on: NCI-H460; assay: Growth inhibition of human NCI-H460 cells assessed as cell growth at 10 uM after 48 hrs by sulforhodamine B assay relative to control; format: functional; conditions: NCI-H460, 48 h, read-out: Activity
# [4] = Growth inhibition of human Hs 578T cells assessed as cell growth at 10 uM after 48 hrs by sulforhodamine B assay relative to control; format: functional; conditions: read-out: Activity
# [5] = tested on: IGROV-1; assay: Growth inhibition of human IGROV1 cells assessed as cell growth at 10 uM after 48 hrs by sulforhodamine B assay relative to control; format: functional; conditions: IGROV-1, 48 h, read-out: Activity
# [6] = tested on: OVCAR-8; assay: Growth inhibition of human OVCAR8 cells assessed as cell growth at 10 uM after 48 hrs by sulforhodamine B assay relative to control; format: functional; conditions: OVCAR-8, 48 h, read-out: Activity
# [7] = tested on: DU-145; assay: Growth inhibition of human DU145 cells assessed as cell growth at 10 uM after 48 hrs by sulforhodamine B assay relative to control; format: functional; conditions: DU-145, 48 h, read-out: Activity
# [8] = tested on: UACC-62; assay: Growth inhibition of human UACC62 cells after 48 hrs by sulforhodamine B assay; format: functional; conditions: UACC-62, 48 h; for CC50: read-out: LC50 (the source's name)
# [9] = tested on: RXF 393; assay: Growth inhibition of human RXF393 cells after 48 hrs by sulforhodamine B assay; format: functional; conditions: RXF 393, 48 h; for CC50: read-out: LC50 (the source's name)
# [10] = tested on: MT4; assay: Cytotoxicity against human MT4 cells; format: functional, cell-based
# [11] = tested on: 786-0; assay: Growth inhibition of human 786-0 cells after 48 hrs by sulforhodamine B assay; format: functional; conditions: 786-0, 48 h
# [12] = Growth inhibition of human EKVX cells after 48 hrs by sulforhodamine B assay; format: functional; conditions: for CC50: read-out: LC50 (the source's name)
# [13] = tested on: OVCAR-4; assay: Growth inhibition of human OVCAR4 cells assessed as cell growth at 10 uM after 48 hrs by sulforhodamine B assay relative to control; format: functional; conditions: OVCAR-4, 48 h, read-out: Activity
# [14] = tested on: K562; assay: Growth inhibition of human K562 cells after 48 hrs by sulforhodamine B assay; format: functional; conditions: K562, 48 h
# [15] = tested on: M14; assay: Growth inhibition of human M14 cells assessed as cell growth at 10 uM after 48 hrs by sulforhodamine B assay relative to control; format: functional; conditions: M14, 48 h, read-out: Activity
# [16] = tested on: HCT-15; assay: Growth inhibition of human HCT15 cells assessed as cell growth at 10 uM after 48 hrs by sulforhodamine B assay relative to control; format: functional; conditions: HCT-15, 48 h, read-out: Activity
# [17] = tested on: A498; assay: Growth inhibition of human A498 cells assessed as cell growth at 10 uM after 48 hrs by sulforhodamine B assay relative to control; format: functional; conditions: A498, 48 h, read-out: Activity
# [18] = Growth inhibition of human HCC2998 cells after 48 hrs by sulforhodamine B assay; format: functional; conditions: HCC 2998, 48 h
# [19] = tested on: UACC-257; assay: Growth inhibition of human UACC257 cells assessed as cell growth at 10 uM after 48 hrs by sulforhodamine B assay relative to control; format: functional; conditions: UACC-257, 48 h, read-out: Activity
# [20] = tested on: BT-549; assay: Growth inhibition of human BT549 cells after 48 hrs by sulforhodamine B assay; format: functional; conditions: BT-549, 48 h; for CC50: read-out: LC50 (the source's name)
# [21] = tested on: A549; assay: Growth inhibition of human A549/ATCC cells after 48 hrs by sulforhodamine B assay; format: functional; conditions: A549, 48 h
# [22] = tested on: UACC-62; assay: Growth inhibition of human UACC62 cells assessed as cell growth at 10 uM after 48 hrs by sulforhodamine B assay relative to control; format: functional; conditions: UACC-62, 48 h, read-out: Activity
# [23] = Growth inhibition of human NCI-ADR-RES cells after 48 hrs by sulforhodamine B assay; format: functional; conditions: for CC50: read-out: LC50 (the source's name)
# [24] = tested on: HOP-62; assay: Growth inhibition of human HOP62 cells after 48 hrs by sulforhodamine B assay; format: functional; conditions: HOP-62, 48 h
# [25] = tested on: KM12; assay: Growth inhibition of human KM12 cells assessed as cell growth at 10 uM after 48 hrs by sulforhodamine B assay relative to control; format: functional; conditions: KM12, 48 h, read-out: Activity
# [26] = tested on: IGROV-1; assay: Growth inhibition of human IGROV1 cells after 48 hrs by sulforhodamine B assay; format: functional; conditions: IGROV-1, 48 h; for CC50: read-out: LC50 (the source's name)
# [27] = tested on: OVCAR-5; assay: Growth inhibition of human OVCAR5 cells after 48 hrs by sulforhodamine B assay; format: functional; conditions: OVCAR-5, 48 h; for CC50: read-out: LC50 (the source's name)
# [28] = tested on: TK-10; assay: Growth inhibition of human TK10 cells assessed as cell growth at 10 uM after 48 hrs by sulforhodamine B assay relative to control; format: functional; conditions: TK-10, 48 h, read-out: Activity
# [29] = Growth inhibition of human HCC2998 cells assessed as cell growth at 10 uM after 48 hrs by sulforhodamine B assay relative to control; format: functional; conditions: HCC 2998, 48 h, read-out: Activity
# [30] = tested on: BT-549; assay: Growth inhibition of human BT549 cells assessed as cell growth at 10 uM after 48 hrs by sulforhodamine B assay relative to control; format: functional; conditions: BT-549, 48 h, read-out: Activity
# [31] = Growth inhibition of human Hs 578T cells after 48 hrs by sulforhodamine B assay; format: functional; conditions: for CC50: read-out: LC50 (the source's name)
# [32] = tested on: A498; assay: Growth inhibition of human A498 cells after 48 hrs by sulforhodamine B assay; format: functional; conditions: A498, 48 h; for CC50: read-out: LC50 (the source's name)
# [33] = tested on: SNB-19; assay: Growth inhibition of human SNB19 cells assessed as cell growth at 10 uM after 48 hrs by sulforhodamine B assay relative to control; format: functional; conditions: SNB-19, 48 h, read-out: Activity
# [34] = tested on: SR; assay: Growth inhibition of human SR cells assessed as cell growth at 10 uM after 48 hrs by sulforhodamine B assay relative to control; format: functional; conditions: read-out: Activity
# [35] = tested on: CCRF-CEM; assay: Growth inhibition of human CCRF-CEM cells after 48 hrs by sulforhodamine B assay; format: functional
compound,measurement,setting,value
CN(C)CCNc1nc2c(c(=N)n1-c1ccccc1)c(=S)n(-c1ccccc1)c(=S)n2-c1ccccc1,GI50,[1],4.3 µM
same,LC50,[1],49.9 µM
same,TGI,[1],14.6 µM
same,GI50,[2],1.2 µM
same,LC50 (concentration killing 50% of cells),[2],6 µM
same,TGI,[2],2.7 µM
same,growth at 10 µM,[3],3.8%
same,growth at 10 µM,[4],12.3%
same,growth at 10 µM,[5],36.3%
same,growth at 10 µM,[6],33.6%
same,growth at 10 µM,[7],45%
same,GI50,[8],1.8 µM
same,TGI,[8],3.5 µM
same,CC50,[8],6.6 µM
same,GI50,[9],1.2 µM
same,TGI,[9],3.1 µM
same,CC50,[9],8.1 µM
same,IC50,[10],8.4 µM
same,GI50,[11],1.4 µM
same,LC50,[11],21.4 µM
same,TGI,[11],4.3 µM
same,GI50,[12],12.1 µM
same,TGI,[12],32.2 µM
same,CC50,[12],85.8 µM
same,growth at 10 µM,[13],41.7%
same,GI50,[14],0.4 µM
same,LC50 (concentration killing 50% of cells),[14],6.8 µM
same,TGI,[14],2.2 µM
same,growth at 10 µM,[15],-84.4%
same,growth at 10 µM,[16],18.8%
same,growth at 10 µM,[17],40.3%
same,GI50,[18],2.3 µM
same,LC50,[18],43 µM
same,TGI,[18],6.8 µM
same,growth at 10 µM,[19],-74.6%
same,GI50,[20],5.3 µM
same,TGI,[20],21.3 µM
same,CC50,[20],62.1 µM
same,GI50,[21],4.1 µM
same,LC50,[21],70.4 µM
same,TGI,[21],18.6 µM
same,growth at 10 µM,[22],-90.3%
same,GI50,[23],10.5 µM
same,TGI,[23],31 µM
same,CC50,[23],91 µM
same,GI50,[24],2.9 µM
same,LC50,[24],55.6 µM
same,TGI,[24],10.1 µM
same,growth at 10 µM,[25],0.2%
same,GI50,[26],8.1 µM
same,TGI,[26],23 µM
same,CC50,[26],57.5 µM
same,GI50,[27],12.1 µM
same,TGI,[27],29.5 µM
same,CC50,[27],72.1 µM
same,growth at 10 µM,[28],47.7%
same,growth at 10 µM,[29],-39.6%
same,growth at 10 µM,[30],4.45%
same,GI50,[31],2.3 µM
same,TGI,[31],7.7 µM
same,CC50,[31],40 µM
same,GI50,[32],2.4 µM
same,TGI,[32],6.8 µM
same,CC50,[32],28.1 µM
same,growth at 10 µM,[33],26.1%
same,growth at 10 µM,[34],34.7%
same,GI50,[35],1.4 µM
same,LC50,[35],9.2 µM
same,TGI,[35],3.6 µM
CCCCN(CCCC)CCCNc1nc2c(c(=N)n1-c1ccccc1)c(=S)n(-c1ccccc1)c(=S)n2-c1ccccc1,GI50,[1],0.4 µM
same,LC50,[1],3.8 µM
same,TGI,[1],1.5 µM
same,GI50,[2],0.2 µM
same,LC50 (concentration killing 50% of cells),[2],0.6 µM
same,TGI,[2],0.3 µM
same,growth at 10 µM,[3],-95.7%
same,growth at 10 µM,[4],-64.6%
same,growth at 10 µM,[5],-70.9%
same,growth at 10 µM,[6],-36.1%
same,growth at 10 µM,[7],-100%
same,GI50,[8],0.3 µM
same,TGI,[8],1.2 µM
same,CC50,[8],3.5 µM
same,GI50,[9],0.2 µM
same,TGI,[9],0.5 µM
same,CC50,[9],36.8 µM
same,IC50,[10],1.6 µM
same,GI50,[11],0.2 µM
same,LC50,[11],0.8 µM
same,TGI,[11],0.4 µM
same,GI50,[12],0.4 µM
same,TGI,[12],1.9 µM
same,CC50,[12],4.7 µM
same,growth at 10 µM,[13],-82%
same,GI50,[14],0.2 µM
same,growth at 10 µM,[15],-86.3%
same,growth at 10 µM,[16],-73.3%
same,growth at 10 µM,[17],-100%
same,GI50,[18],0.4 µM
same,LC50,[18],4.7 µM
same,TGI,[18],1.8 µM
same,growth at 10 µM,[19],-73.1%
same,GI50,[20],1.5 µM
same,TGI,[20],3.2 µM
same,CC50,[20],6.7 µM
same,GI50,[21],0.7 µM
same,LC50,[21],8.3 µM
same,TGI,[21],2.4 µM
same,growth at 10 µM,[22],-99.4%
same,GI50,[23],1.6 µM
same,TGI,[23],3.3 µM
same,CC50,[23],8.1 µM
same,GI50,[24],1.2 µM
same,LC50,[24],5.4 µM
same,TGI,[24],2.6 µM
same,growth at 10 µM,[25],-100%
same,GI50,[26],1.9 µM
same,TGI,[26],3.8 µM
same,CC50,[26],7.5 µM
same,GI50,[27],1.4 µM
same,TGI,[27],2.8 µM
same,CC50,[27],5.5 µM
same,growth at 10 µM,[28],-89.6%
same,growth at 10 µM,[29],-91.5%
same,growth at 10 µM,[30],-90.6%
same,GI50,[31],0.5 µM
same,TGI,[31],1.9 µM
same,CC50,[31],5.5 µM
same,GI50,[32],1.1 µM
same,TGI,[32],2.4 µM
same,CC50,[32],5.2 µM
same,growth at 10 µM,[33],-87.4%
same,growth at 10 µM,[34],-65.2%
same,GI50,[35],0.1 µM
same,LC50,[35],0.6 µM
same,TGI,[35],0.3 µM
